What follows are compounds tested against T1, human GnRH receptor (Homo sapiens, UniProt P30968) (assay: IP-One HTRF assay with buserelin stimulation). Settings: CHO cells stably expressing human GnRH receptor; buserelin at EC80; read-out: Potency in IP-One HTRF assay with buserelin (at EC80) stimulation, given as IC50.
T1 construct: host or cells: CHO cells stably expressing human GnRH receptor (line established by Prof. Thomas Gudermann)
T1 sequence (P30968 1-328): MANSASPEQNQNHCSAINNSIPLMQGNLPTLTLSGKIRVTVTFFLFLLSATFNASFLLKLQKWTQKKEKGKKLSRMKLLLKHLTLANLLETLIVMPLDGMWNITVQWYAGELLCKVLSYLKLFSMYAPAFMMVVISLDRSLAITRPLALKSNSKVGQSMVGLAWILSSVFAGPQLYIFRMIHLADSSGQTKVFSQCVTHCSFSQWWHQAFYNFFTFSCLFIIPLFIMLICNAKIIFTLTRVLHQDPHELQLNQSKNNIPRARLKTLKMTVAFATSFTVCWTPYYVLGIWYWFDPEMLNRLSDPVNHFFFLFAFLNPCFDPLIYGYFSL
Assay type: cell-based
Excerpt: By using homogenous time-resolved fluorescence resonance energy transfer (HTRF), the generation of one component of the GnRH-R signalling cascade can be measured. After stimulation of CHO cells stably expressing human GnRH receptor (established by Prof. Thomas Gudermann, currently University of Marburg, Germany; supplied as frozen cell aliquots by Cell Culture Services, Hamburg, Germany) with the EC80 of the GnRH agonist buserelin, Gq protein-coupled receptor signalling cascade is activated resulting in PLC-dependent cleavage of PIP2 to Inositol-1,4,5-triphosphate (IP3) and Diacylglycerol. The second messenger IP3 is degraded intracellularly to myo-inositol. Inhibition of the final degradation step from Inositol-1-phosphate (IP1) to myo-inositol by addition of lithium chloride leads to accumulation of IP1 in the cells. In cell lysates, IP1 can be detected via an antibody-based HTRF detection technology, where IP1 can displace the FRET acceptor IP1-d2 from binding by Terbium-labelled anti-IP1 antibody as donor resulting in a signal decrease. Compounds were tested for their capability of inhibiting GnRH-R activation by buserelin. For all IP-One HTRF® assays reagents of Cisbio Bioassays (IP-One Tb Jumbo kit, #62IPAPEJ; Cisbio Bioassays, Bagnols sur Cèze Cedex, France) were used.
For the assay, frozen cell aliquots were thawed and a cell suspension (3.33×10^6 cells/mL) containing IP1-d2 (dilution 1:40) was prepared and incubated at 37° C. After 1 h 3 μl of the cell suspension were added to 50 nl of a 100-fold concentrated solution of the test compound in DMSO pre-dispensed in a well of a white low-volume 384-well microtiter plate (Greiner Bio-One, Frickenhausen, Germany). […] Plates were incubated for 1 h at 37° C. and 5% carbon dioxide before the cells were lysed by adding 3 μl Terbium-labelled anti-IP1 antibody (1:40) diluted in Conjugate & Lysis buffer as supplied with the kit. After an incubation for 1 h at 22° C. to enable complete cell lysis and antibody binding to free IP1 or IP1-d2, plates were measured in an HTRF reader, e.g. a RUBYstar, PHERAstar (both BMG Labtechnologies, Offenburg, Germany) or a Viewlux (PerkinElmer LAS, Rodgau-Jügesheim, Germany).
From the fluorescence emissions at 665 nm (FRET) and at 620 nm (background signal of Terbium-antibody), the ratio (emission at 665 nm divided by emission at 620 nm) was calculated and the data were normalized (reaction without test compound=0% inhibition; all other assay components except agonist=100% inhibition). On the same microtiter plate, compounds were tested at 10 different concentrations in the range of 20 μM to 1 nM (20 μM, 6.7 μM, 2.2 μM, 0.74 μM, 0.25 μM, 82 nM, 27 nM, 9.2 nM, 3.1 nM and 1 nM; dilution series prepared before the assay at the level of the 100-fold conc. stock solutions by serial 1:3 dilutions in 100% DMSO) in duplicate values for each concentration. By using an in-house software, the IC50 values were calculated by a 4 parameter fit.
Within the meaning of the present invention the antagonist activity is reflected by the ability of a compound of the invention to antagonize human GnRH receptor stimulation in IP-One HTRF® assay at least three times the standard deviation over the background level.

First: O=C(NCc1ncc(C(F)(F)F)cc1Cl)c1ccc2c(c1)C1(CC[S+]([O-])CC1)C(C1CC1)N2S(=O)(=O)c1ccc(F)cc1 (mixture of isomers) [Example 2, N-{[3-chloro-5-(trifluoromethyl)pyridin-2-yl]methyl}-2-cyclopropyl-1-[(4-fluorophenyl)sulfonyl]-1,2,2′,3′,5′,6′-hexahydrospiro[indole-3,4′-thiopyran]-5-carboxamide 1′-oxide]
Second: O=C(NCc1ncc(C(F)(F)F)cc1Cl)c1ccc2c(c1)C1(CCS(=O)(=O)CC1)C(C1CC1)N2S(=O)(=O)c1ccc(F)cc1 (racemic) [Example 3, N-{[3-chloro-5-(trifluoromethyl)pyridin-2-yl]methyl}-2-cyclopropyl-1-[(4-fluorophenyl)sulfonyl]-1,2,2′,3′,5′,6′-hexahydrospiro[indole-3,4′-thiopyran]-5-carboxamide 1′,1′-dioxide]
The IC50 of the first is 2-fold lower: 27 nM for the first, 53 nM for the second.

Going from `O=C(NCc1ncc(C(F)(F)F)cc1F)c1ccc2c(c1)C1(CCS(=O)(=O)CC1)C(C1CC1)N2S(=O)(=O)c1ccc(F)cc1` (racemic) [Example 1, 2-cyclopropyl-1-[(4-fluorophenyl)sulfonyl]-N-{[3-fluoro-5-(trifluoromethyl)pyridin-2-yl]methyl}-1,2,2′,3′,5′,6′-hexahydrospiro[indole-3,4′-thiopyran]-5-carboxamide 1′,1′-dioxide] to `N#Cc1ccc(S(=O)(=O)N2c3ccc(C(=O)NCc4ncc(C(F)(F)F)cc4F)cc3C3(CCS(=O)(=O)CC3)C2C2CC2)cc1` (racemic) [Example 7, 1-[(4-cyanophenyl)sulfonyl]-2-cyclopropyl-N-{[3-fluoro-5-(trifluoromethyl)pyridin-2-yl]methyl}-1,2,2′,3′,5′,6′-hexahydrospiro[indole-3,4′-thiopyran]-5-carboxamide 1′,1′-dioxide], the IC50 falls from 420 nM to 69 nM (6.1-fold).

Compared with `O=C(NCc1ncc(Cl)cc1C(F)(F)F)c1ccc2c(c1)C1(CCS(=O)(=O)CC1)C(C1CC1)N2S(=O)(=O)c1ccc(F)cc1` (racemic) [Example 4, N-{[5-chloro-3-(trifluoromethyl)pyridin-2-yl]methyl}-2-cyclopropyl-1-[(4-fluorophenyl)sulfonyl]-1,2,2′,3′,5′,6′-hexahydrospiro[indole-3,4′-thiopyran]-5-carboxamide 1′,1′-dioxide], `Cc1cnc(CNC(=O)c2ccc3c(c2)C2(CCS(=O)(=O)CC2)C(C2CC2)N3S(=O)(=O)c2ccc(F)cc2)c(C(F)(F)F)c1` (racemic) [Example 5, 2-cyclopropyl-1-[(4-fluorophenyl)sulfonyl]-N-{[5-methyl-3-(trifluoromethyl)pyridin-2-yl]methyl}-1,2,2′,3′,5′,6′-hexahydrospiro[indole-3,4′-thiopyran]-5-carboxamide 1′,1′-dioxide] is 13-fold higher in IC50: 69 nM for the first, 864 nM for the second. The first is the more potent here.

Compared with `COc1cccc(S(=O)(=O)N2c3ccc(C(=O)NCc4ncc(C(F)(F)F)cc4F)cc3C3(CCS(=O)(=O)CC3)C2C2CC2)c1` (racemic) [Example 6, 2-cyclopropyl-N-{[3-fluoro-5-(trifluoromethyl)pyridin-2-yl]methyl}-1-[(3-methoxyphenyl)sulfonyl]-1,2,2′,3′,5′,6′-hexahydrospiro[indole-3,4′-thiopyran]-5-carboxamide 1′,1′-dioxide], `O=C(NCc1ncc(C(F)(F)F)cc1F)c1ccc2c(c1)C1(CCS(=O)(=O)CC1)C(C1CC1)N2S(=O)(=O)c1cccc(OC(F)F)c1` (racemic) [Example 13, 2-cyclopropyl-1-{[3-(difluoromethoxy)phenyl]sulfonyl}-N-{[3-fluoro-5-(trifluoromethyl)pyridin-2-yl]methyl}-1,2,2′,3′,5′,6′-hexahydrospiro[indole-3,4′-thiopyran]-5-carboxamide 1′,1′-dioxide] is 1.8-fold higher in IC50: 231 nM for the first, 423 nM for the second.

Going from `N#Cc1cccc(S(=O)(=O)N2c3ccc(C(=O)NCc4ncc(C(F)(F)F)cc4F)cc3C3(CCS(=O)(=O)CC3)C2C2CC2)c1` (racemic) [Example 9, 1-[(3-cyanophenyl)sulfonyl]-2-cyclopropyl-N-{[3-fluoro-5-(trifluoromethyl)pyridin-2-yl]methyl}-1,2,2′,3′,5′,6′-hexahydrospiro[indole-3,4′-thiopyran]-5-carboxamide 1′,1′-dioxide] to `N#Cc1cccc(S(=O)(=O)N2c3ccc(C(=O)NCc4ncc(C(F)(F)F)cc4Cl)cc3C3(CCS(=O)(=O)CC3)C2C2CC2)c1` (racemic) [Example 10, N-{[3-chloro-5-(trifluoromethyl)pyridin-2-yl]methyl}-1-[(3-cyanophenyl)sulfonyl]-2-cyclopropyl-1,2,2′,3′,5′,6′-hexahydrospiro[indole-3,4′-thiopyran]-5-carboxamide 1′,1′-dioxide], the IC50 falls from 311 nM to 29 nM (11-fold).

Going from `O=C(NCc1ncc(C(F)(F)F)cc1F)c1ccc2c(c1)C1(CCS(=O)(=O)CC1)C(C1CC1)N2S(=O)(=O)c1cccc(OC(F)(F)F)c1` (racemic) [Example 11, 2-cyclopropyl-N-{[3-fluoro-5-(trifluoromethyl)pyridin-2-yl]methyl}-1-{[3-(trifluoromethoxy)phenyl]sulfonyl}-1,2,2′,3′,5′,6′-hexahydrospiro[indole-3,4′-thiopyran]-5-carboxamide 1′,1′-dioxide] to `O=C(NCc1ncc(C(F)(F)F)cc1Cl)c1ccc2c(c1)C1(CCS(=O)(=O)CC1)C(C1CC1)N2S(=O)(=O)c1cccc(OC(F)(F)F)c1` (racemic) [Example 12, N-{[3-chloro-5-(trifluoromethyl)pyridin-2-yl]methyl}-2-cyclopropyl-1-{[3-(trifluoromethoxy)phenyl]sulfonyl}-1,2,2′,3′,5′,6′-hexahydrospiro[indole-3,4′-thiopyran]-5-carboxamide 1′,1′-dioxide], the IC50 falls from 760 nM to 219 nM (3.5-fold). The second is the more potent here.

Compared with `O=C(NCc1ncc(C(F)(F)F)cc1F)c1ccc2c(c1)C1(CCS(=O)(=O)CC1)C(C1CC1)N2S(=O)(=O)c1ccc(OC(F)F)cc1` (racemic) [Example 15, 2-cyclopropyl-1-{[4-(difluoromethoxy)phenyl]sulfonyl}-N-{[3-fluoro-5-(trifluoromethyl)pyridin-2-yl]methyl}-1,2,2′,3′,5′,6′-hexahydrospiro[indole-3,4′-thiopyran]-5-carboxamide 1′,1′-dioxide], `O=C(NCc1ncc(C(F)(F)F)cc1Cl)c1ccc2c(c1)C1(CCS(=O)(=O)CC1)C(C1CC1)N2S(=O)(=O)c1ccc(OC(F)F)cc1` (racemic) [Example 16, N-{[3-chloro-5-(trifluoromethyl)pyridin-2-yl]methyl}-2-cyclopropyl-1-{[4-(difluoromethoxy)phenyl]sulfonyl}-1,2,2′,3′,5′,6′-hexahydrospiro[indole-3,4′-thiopyran]-5-carboxamide 1′,1′-dioxide] is 3-fold lower in IC50: 112 nM for the first, 37 nM for the second. The second is the more potent here.

For `NC(=O)c1ccc(S(=O)(=O)N2c3ccc(C(=O)NCc4ncc(C(F)(F)F)cc4Cl)cc3C3(CCS(=O)(=O)CC3)C2C2CC2)cc1` (racemic) [Example 17, 1-[(4-carbamoylphenyl)sulfonyl]-N-{[3-chloro-5-(trifluoromethyl)pyridin-2-yl]methyl}-2-cyclopropyl-1,2,2′,3′,5′,6′-hexahydrospiro[indole-3,4′-thiopyran]-5-carboxamide 1′,1′-dioxide], the IC50 was 260 nM.

— US20160052936A1, “SPIROINDOLINE DERIVATIVES FOR USE AS GONADOTROPIN-RELEASING HORMONE RECEPTOR ANTAGONISTS” (BAYER PHARMA AKTIENGESELLSCHAFT, priority 2013, published 2016)
